US20050037446A1, “Agents that recognize src when phosphorylated at serine 17” (priority 2001, published 2005)

Legend:
[1] = test system: Cb1; assay: Cb1 tyrosine phosphorylation (immunoprecipitation/Western blot), NIH3T3 cells; type: cell-based; conditions: 10 μM, 20 minutes
Description: To determine the role of C3G and its complex in Rap1 activation, NIH3T3 cells were grown and treated for 20 minutes in the presence or absence of H89 (10 μM) or PP2 [AG1879; 4-amino-5-(4-chlorophenyl)-7-(t-butyl)pyazolo[3,4-d]pyrimidine, LY294002 [2-(4-Morpholinyl)-8-phenyl-4H-1-bemzopyran-4-one] (10 μM, Cal Biochem), treated with Forskolin (10 μM, Cal Biochem) for five minutes, and cell lysates prepared, as described above. Endogenous Cb1 was immunoprecipitated using a Cb1 antibody (Santa Cruz Biotechnology Inc.) from cell lysates and analyzed by Western blot for tyrosine phosphorylation, using a pTyr antibody (Santa Cruz Biotechnology Inc.) as described above. Briefly, for immunoprecipitation of Cb1, equal amounts of cell lysate per condition were precipitated at 4° C. for 4 to 6 hours in lysis buffer. Proteins were resolved by SDS-PAGE, blotted onto PVDF membranes and probed with the appropriate antibodies. All Western blots and immunoprecipitations were performed at least three times.

[2] = test system: Rap1; conditions: NIH3T3 cells, pretreatment; cited from earlier work
[3] = test system: ERK1/2; assay: ERK phosphorylation Western blot, Hek293 cells; type: cell-based; conditions: 10 μM, 20 minutes pretreatment
Description: To examine the downstream consequences of Src-dependent signaling in Hek293 cells, ERK activation was measured using pERK antibodies (pERK1/2). Hek293 cells received no pretreatment or were pretreated for 20 minutes with H89 (10 μM), PP2 (10 μM), or LY (10 μM), and stimulated for 5 minutes with isoproterenol (10 μM), Forskolin (10 μM), or 100 ng/ml EGF, using the methods described above. Cell lysates were analyzed by Western blotting for the presence of pERK1/2 (New England Biolabs) or total ERK2 (Santa Cruz Biotechnology) as a control for protein loading.
To determine the role of PKA phosphorylation of Src serine 17 in ERK activation by cAMP, Hek293 cells were transfected with myc-ERK2 in the presence or absence of SrcS17A or SrcS17D, and stimulated with 10 μM isoproterenol. MycERK2 was immunoprecipitated from cell lysates using an agarose-coupled Myc antibody followed by western blotting for phospho-ERK (pMycERK2, upper panel) or total MycERK2 with a Myc antibody, as a control for protein loading.

[4] = test system: AKT; assay: AKT phosphothreonine 308 Western blot, Hek293 cells; type: cell-based
Description: To determine the physiological role of Ras signaling in Hek293 cells, a well-known Ras effector, phosphoinositol-3 kinase (PI3-K) and its target, AKT (a serine/threonine kinase which participates in a variety of cellular effects including cell survival, adhesion, and cell growth) were examined as follows. Hek293 cells received no pretreatment or were pretreated for 20 minutes with H89 (10 μM), PP2 (10 μM), or LY (10 μM), and stimulated for 5 minutes with isoproterenol. Cell lysates were analyzed by Western blotting for phospho-AKT (PAKT 308, Cell Signaling, Beverly, Mass.) or total AKT (Cell Signaling) as a control. Isoproterenol activated AKT, as measured by phosphorylation-specific antibodies to phosphothreonine 308 (AKT). This phosphorylation required P13-K as LY blocked isoproterenol-induced phosphorylation at this site. Moreover, this phosphorylation was blocked by PP2, but not H89, indicating the requirement of SFKs, but not PKA. Therefore, isoproterenol's activation of AKT proceeds through Src and PI3-K but not PKA.
Similar amounts of cell lysate (determined by protein concentrations) were immunoprecipitated using an agarose-coupled HA antibody followed by Western blotting for phospho-AKT (PHA-AKT 308) or total HA-AKT with an HA antibody (12CA5, Boehringer Mannheim, Indianapolis, Ind.).

[5] = test system: Ras; assay: Ras activation affinity assay in SYF and Src++ cells; type: cell-based, mouse
Description: Endogenous GTP-loaded Ras was determined using a Ras activation affinity assay as follows. Hek293 cells were grown, stimulated, and lysed as described above. Activated Ras was assayed as previously described (Schmitt and Stork, Mol. Cell. Biol. 21:3671-83, 2001). Briefly, equivalent amounts of lysates from stimulated cells were incubated with GST-Rafl-RBD (Ras-binding domain) as specified by the manufacturer (Upstate Biotechnology, Lake Placid, N.Y.). Proteins were eluted with 2×Laemmli buffer and applied to a 12% SDS polyacrylamide gel. Proteins were transferred to a PVDF membrane, blocked at room temperature for 1 hour in 5% milk and probed with either Ras or Flag antibody overnight at 4° C., followed by an HRP-conjugated anti-mouse secondary. Proteins were detected using enhanced chemiluminescence.
To determine which SFK was mediating these effects, cell lines derived from mouse embryo fibroblasts that lack SFKs, were used as described in Example 3. SYF and Srcd cells were transfected with Flag-Rap 1, and WT Src or pcDNA3 vector alone as described in Example 3. Cells were stimulated with isoproterenol or left untreated, and then cell lysates were examined for active GTP-loaded Rap1 (Flag-Rap1-GTP) as described in Examples 1 and 6. Isoproterenol's ability to activate Rap1 was absent in SYF cells, but was retained in Src^++ cells. […]

For `O=S(=O)(NCCNC/C=C/c1ccc(Br)cc1)c1cccc2cnccc12` [H89, N-[2(Bromocimamylamino)ethyl]-5-isoquinolinesulfonamide], the “Effect on Forskolin-stimulated Cb1 tyrosine phosphorylation” value [1] is listed as “inhibited”, the “Effect on Forskolin's activation of endogenous Rap1” value [2] is listed as “blocked” and the “Effect of inhibitor on isoproterenol's phosphorylation of ERK” value [3] is listed as “inhibited”.
With `CC(C)(C)n1nc(-c2ccc(Cl)cc2)c2c(N)ncnc21` [PP2, 4-amino-5-(4-chlorophenyl)-7-(t-butyl)pyazolo[3,4-d]pyrimidine] the “Effect of inhibitor on isoproterenol-induced AKT phosphorylation” value ([4]; 10 μM, 20 minutes pretreatment) was “blocked”, the “Effect on Forskolin-stimulated Cb1 tyrosine phosphorylation” value [1] was “inhibited” and the “Effect of inhibitor on isoproterenol's phosphorylation of ERK” value [3] was “inhibited”.
In the case of `CC(C)NCC(O)c1ccc(O)c(O)c1` (stereo not drawn) [isoproterenol], the “Ras activation by agonist” value ([5]; SYF cells) is reported as “absent”, the “Ras activation by agonist” value ([5]; Src++ cells) is reported as “retained” and the “Activation of AKT (phosphothreonine 308)” value ([4]; 5 minutes) is reported as “activated AKT”.
